Laboratory results reported in patent publication US20250206714A1, “COMPOSITIONS AND METHODS FOR TREATMENT OF INFLAMMATORY DISEASES” (Invea Therapeutics, Inc., priority 2022, published 2025).

Columns and labels:
MDR1 = assay: in vitro; parameters: Papp A→B at 60 min / Papp B→A at 60 min / efflux ratio at 60 min / recovery at 60 min / % recovery Apical concentration-Basal concentration / % recovery Basal concentration-Apical concentration: dose or concentration left out as unconfirmed; conditions: dog, MDCK-MDR1
Procedure: (§1) Digoxin is used as reference and lucifer yellow is used as the integrity marker. […] Papp, efflux ratio and percent recovery are calculated.

MDR1 (P-gp) = assay: in vitro; parameters: Papp A→B at 60 min / Papp B→A at 60 min / efflux ratio at 60 min / recovery at 60 min / % recovery Apical concentration-Basal concentration / % recovery Basal concentration-Apical concentration: dose or concentration left out as unconfirmed; conditions: dog; for efflux ratio at 60 min: MDCK-MDR1
Procedure: as §1

[1] = Metabolic stability assay in human liver microsomes in the presence of specific cytochrome P450 inhibitors (arm without inhibitor, summary statements); conditions: for % rem @ 5 min / % rem @ 15 min / % rem @ 30 min / % rem @ 45 min: 1 μM, no inhibitor
CYP 2C9 = target: T1, CYP 2C9 (Homo sapiens, UniProt P11712); assay: Metabolic stability in human liver microsomes with CYP 2C9 inhibitor Sulfaphenazole; type: in vitro ADME; conditions: 1 μM + Sulfaphenazole (20 μM)
T1 construct: The experiment was conducted in human liver microsomes; from tissue; host or cells: human liver microsomes
T1 sequence (P11712 whole entry): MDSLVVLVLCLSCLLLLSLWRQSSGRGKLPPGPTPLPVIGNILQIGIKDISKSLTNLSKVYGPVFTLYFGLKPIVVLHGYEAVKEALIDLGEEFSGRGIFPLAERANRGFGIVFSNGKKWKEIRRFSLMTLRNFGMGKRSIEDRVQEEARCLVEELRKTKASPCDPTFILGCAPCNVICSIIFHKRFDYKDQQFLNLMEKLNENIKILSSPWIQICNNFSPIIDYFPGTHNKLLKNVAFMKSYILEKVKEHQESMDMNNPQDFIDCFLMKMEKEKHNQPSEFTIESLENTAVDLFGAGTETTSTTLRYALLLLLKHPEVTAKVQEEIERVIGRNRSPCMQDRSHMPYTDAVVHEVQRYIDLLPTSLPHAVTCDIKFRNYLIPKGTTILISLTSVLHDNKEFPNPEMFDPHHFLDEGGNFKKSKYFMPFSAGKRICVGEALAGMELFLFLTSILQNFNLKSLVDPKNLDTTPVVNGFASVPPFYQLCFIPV

CYP 2C19 = target: T2, CYP 2C19 (Homo sapiens, UniProt P33261); assay: Metabolic stability in human liver microsomes with CYP 2C19 inhibitor Nootkatone; type: in vitro ADME; conditions: 1 μM + Nootkatone (20 μM)
T2 construct: The experiment was conducted in human liver microsomes; from tissue; host or cells: human liver microsomes
T2 sequence (P33261 whole entry): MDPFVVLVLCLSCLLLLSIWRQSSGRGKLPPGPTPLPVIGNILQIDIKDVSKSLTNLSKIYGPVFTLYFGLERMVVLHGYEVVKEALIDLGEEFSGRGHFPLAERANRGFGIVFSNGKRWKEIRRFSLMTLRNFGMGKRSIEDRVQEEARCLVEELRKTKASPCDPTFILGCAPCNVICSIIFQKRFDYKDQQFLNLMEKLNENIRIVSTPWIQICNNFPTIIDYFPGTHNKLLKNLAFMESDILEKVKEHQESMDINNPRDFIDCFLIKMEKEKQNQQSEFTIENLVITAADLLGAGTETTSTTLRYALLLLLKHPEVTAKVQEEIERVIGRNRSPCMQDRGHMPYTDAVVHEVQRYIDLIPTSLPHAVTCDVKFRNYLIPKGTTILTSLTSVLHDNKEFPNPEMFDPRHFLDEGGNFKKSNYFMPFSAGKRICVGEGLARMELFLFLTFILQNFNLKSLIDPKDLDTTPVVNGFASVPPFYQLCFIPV

[2] = test system: MDR1 transfected Madin-Darby canine kidney (MDCK) cell monolayer; assay: Permeability assay (MDR1-MDCK); parameters: Papp A→B at 60 min / Papp B→A at 60 min / efflux ratio at 60 min / recovery at 60 min / % recovery Apical concentration-Basal concentration / % recovery Basal concentration-Apical concentration: dose or concentration left out as unconfirmed; conditions: Permeability (MDR1-MDCK) @
Procedure: as §1

CYP 3A4 = CYP 3A4 (Homo sapiens, UniProt P08684); assay: Metabolic stability in human liver microsomes with CYP 3A4 inhibitor Ketoconazole; conditions: 1 μM + Ketoconazole (20 μM)
Chain of CYP 3A4 (P08684 whole entry): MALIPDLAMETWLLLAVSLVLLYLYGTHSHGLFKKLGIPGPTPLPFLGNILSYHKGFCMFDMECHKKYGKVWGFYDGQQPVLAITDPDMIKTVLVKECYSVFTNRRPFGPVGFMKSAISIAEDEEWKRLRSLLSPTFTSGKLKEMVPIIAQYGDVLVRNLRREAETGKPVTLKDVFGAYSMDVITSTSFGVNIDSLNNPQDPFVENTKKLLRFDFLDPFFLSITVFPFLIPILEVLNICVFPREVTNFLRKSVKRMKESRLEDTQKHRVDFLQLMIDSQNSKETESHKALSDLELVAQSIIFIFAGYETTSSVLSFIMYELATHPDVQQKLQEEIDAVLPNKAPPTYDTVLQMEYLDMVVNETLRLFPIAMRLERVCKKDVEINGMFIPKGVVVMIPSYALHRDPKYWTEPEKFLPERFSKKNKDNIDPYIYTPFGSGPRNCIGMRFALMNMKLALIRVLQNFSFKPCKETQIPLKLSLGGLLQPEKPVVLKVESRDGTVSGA

IL-1β = assay: LPS+ATP-induced model of inflammasome activation, plasma IL-1β by ELISA; type: in vivo, Balb/c mice; conditions: 20 mg/kg, Intraperitoneal; mice plasma
Procedure: The procedures detailed here can be utilized for testing all compounds of the disclosure. The example utilizes LPS+ATP-induced model of inflammasome activation in 8-10 weeks old male Balb/c mice for in vivo testing.
8-10 weeks old male Balb/c mice were challenged by intraperitoneal (i.p.) injection of 200 μg/Kg (0.2 μg/g) LPS at t=0 hr, followed by i.p. injection of 5 mM solution of ATP at t=2 hr (2 h after LPS challenge). The compound of disclosure being tested for inhibitory activity (such as Compound 6) was administered both via intraperitoneal and oral route at −1 hr. Different doses of the compound of the disclosure were given to the mice […] as shown below.
MCC950, a specific small molecule inhibitor of NLRP3 inflammasome was used as a positive control to enable comparison of inhibitory activity of the compounds of the disclosure along with a known inhibitor. 2.5 hours after the LPS priming (or 0.5 hours after ATP administration), blood was collected via retro-orbital bleeding in heparinized blood collection tubes. Blood was centrifuged for 5 minutes at 10,000 rpm in a refrigerated centrifuge to obtain plasma. Separated plasma was used for cytokine assessment by ELISA. The standard curve (OD VS concentration) for IL-1β was also plotted and used to determine the IL-1β concentration for the OD values. The percentage of inhibition of IL-1β was calculated using the formula: […]

CYP 1A2 = target: T3, CYP 1A2 (Homo sapiens, UniProt P05177); assay: Metabolic stability in human liver microsomes with CYP 1A2 inhibitor Furafylline; type: in vitro ADME; conditions: 1 μM + Furafylline (20 μM)
T3 construct: The experiment was conducted in human liver microsomes; from tissue; host or cells: human liver microsomes
T3 sequence (P05177 1-516): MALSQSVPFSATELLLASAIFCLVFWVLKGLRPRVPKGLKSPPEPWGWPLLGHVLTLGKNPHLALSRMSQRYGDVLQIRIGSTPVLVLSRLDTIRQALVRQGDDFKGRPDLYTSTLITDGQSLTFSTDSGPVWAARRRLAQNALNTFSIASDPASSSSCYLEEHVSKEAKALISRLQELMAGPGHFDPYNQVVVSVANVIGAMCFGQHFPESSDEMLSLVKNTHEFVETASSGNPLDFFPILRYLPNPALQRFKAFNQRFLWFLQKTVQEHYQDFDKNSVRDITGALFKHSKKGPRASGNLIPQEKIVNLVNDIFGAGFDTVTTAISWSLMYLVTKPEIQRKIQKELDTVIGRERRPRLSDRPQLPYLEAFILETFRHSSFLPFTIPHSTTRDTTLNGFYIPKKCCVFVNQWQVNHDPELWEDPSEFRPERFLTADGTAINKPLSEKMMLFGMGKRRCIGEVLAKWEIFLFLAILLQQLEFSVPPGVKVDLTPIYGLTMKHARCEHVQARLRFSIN

[3] = MDCK-MDR1, % recovery Apical concentration-Basal concentration
[4] = MDCK-MDR1, % recovery Basal concentration-Apical concentration
[5] = human, human liver microsomes, pH 7.4

CC(C)NCC(O)COc1cccc2ccccc12 (centres unmarked) [Propranolol]
Papp A→B at 60 min (MDR1): 47.5 ×10⁻⁶ cm/s
Papp B→A at 60 min (MDR1): 48.2 ×10⁻⁶ cm/s
efflux ratio at 60 min (MDR1 (P-gp)): 1.01
recovery at 60 min (MDR1 (P-gp); [3]): 71.5%
recovery at 60 min (MDR1 (P-gp); [4]): ~100%

O=C(O)Cc1ccccc1Nc1c(Cl)cccc1Cl [Diclofenac, reference compound]
% rem @ 5 min ([1]; human liver microsomes): 49.5%
% rem @ 15 min ([1]; human liver microsomes): 28.3%
% rem @ 30 min ([1]; human liver microsomes): 10.5%
% rem @ 45 min ([1]; human liver microsomes): 4.93%
% rem @ 5 min (CYP 2C9): ~100%
% rem @ 15 min (CYP 2C9): ~100%
% rem @ 30 min (CYP 2C9): 91.9%
% rem @ 45 min (CYP 2C9): 82.0%
half-life at 1 µM (CYP 2C9; pH 7.4, with Sulfaphenazole 20 μM): 131 min
microsomal CLint at 1 μM (CYP 2C9; pH 7.4, with Sulfaphenazole 20 μM, read-out: mCLint): 10.6 µL/min/mg

COc1ccc2[nH]c([S+]([O-])Cc3ncc(C)c(OC)c3C)nc2c1 (centres unmarked) [Omeprazole, reference compound]
% rem @ 5 min ([1]; human liver microsomes): 95.9%
% rem @ 15 min ([1]; human liver microsomes): 71.1%
% rem @ 30 min ([1]; human liver microsomes): 60.1%
% rem @ 45 min ([1]; human liver microsomes): 28.8%
half-life at 1 µM [1, 5]: 26.4 min
microsomal CLint at 1 μM [1, 5]: 52.6 µL/min/mg
% rem @ 5 min (CYP 2C19): 94.8%
% rem @ 15 min (CYP 2C19): 92.7%
% rem @ 30 min (CYP 2C19): 85.0%
% rem @ 45 min (CYP 2C19): 55.6%
half-life at 1 µM (CYP 2C19; pH 7.4, with Nootkatone 20 μM): 59.3 min
microsomal CLint at 1 μM (CYP 2C19; pH 7.4, with Nootkatone 20 μM, read-out: mCLint): 23.4 µL/min/mg

Lucifer yellow
% recovery Apical concentration-Basal concentration [2]: 97.2%
% recovery Basal concentration-Apical concentration [2]: 97.1%

Cc1ncc2n1-c1ccc(Cl)cc1C(c1ccccc1F)=NC2 [Midazolam]
% rem @ 5 min ([1]; human liver microsomes): 22.0%
% rem @ 15 min ([1]; human liver microsomes): 2.77%
% rem @ 30 min ([1]; human liver microsomes): <1%
% rem @ 45 min ([1]; human liver microsomes): <1%
half-life at 1 µM ([1]; human, microsomes, pH 7.4): 5.21 min
% rem @ 5 min (CYP 3A4): 96.7%
% rem @ 15 min (CYP 3A4): 97.1%
% rem @ 30 min (CYP 3A4): ~100%
% rem @ 45 min (CYP 3A4): ~100%

C[C@H]1O[C@@H](O[C@H]2[C@@H](O)C[C@H](O[C@H]3[C@@H](O)C[C@H](O[C@H]4CC[C@@]5(C)[C@H](CC[C@@H]6[C@@H]5C[C@@H](O)[C@]5(C)[C@@H](C7=CC(=O)OC7)CC[C@]65O)C4)O[C@@H]3C)O[C@@H]2C)C[C@H](O)[C@@H]1O [Digoxin]
Papp A→B at 60 min (MDR1): 0.28 ×10⁻⁶ cm/s
Papp B→A at 60 min (MDR1): 15.2 ×10⁻⁶ cm/s
efflux ratio at 60 min (MDR1 (P-gp)): 54.3
recovery at 60 min (MDR1 (P-gp); [3]): 99.9%
recovery at 60 min (MDR1 (P-gp); [4]): ~100%

CC(C)(O)c1coc(S(=O)(=O)NC(=O)Nc2c3c(cc4c2CCC4)CCC3)c1 [MCC950, reference compound]
% IL-1 β inhibition (IL-1β): 95%

CCOc1ccc(NC(C)=O)cc1 [Phenacetin, reference compound]
% rem @ 5 min (CYP 1A2): ~100%
% rem @ 15 min (CYP 1A2): ~100%
% rem @ 30 min (CYP 1A2): ~100%
% rem @ 45 min (CYP 1A2): 71.9%
half-life at 1 µM (CYP 1A2; pH 7.4, with Furafylline 20 μM): 102 min
microsomal CLint at 1 μM (CYP 1A2; pH 7.4, with Furafylline 20 μM, read-out: mCLint): 13.6 µL/min/mg
